{"source": "patent US6528514B1", "about": "“IgE antibody production inhibitors and autoimmune diseases inhibitors” (Welfide Corporation, priority 1998, dated 2003)", "key": {"IgE antibody": {"tested_on": "IgE antibody", "experiment": "Determination of serum IgE antibody titer in HgCl2-administered BN rats (ELISA)", "assay_type": "in vivo, rat", "details": "for Serum IgE antibody titer / inhibition of IgE antibody titer increased by HgCl2 (in words): male BN rats; for Serum IgE antibody titer: HgCl2 1 mg/mL/kg s.c., compound 30 mg/kg/day orally for 6 days, serum on day 7, *p < 0.05; for inhibition at 30 mg/kg/day: Rattus norvegicus, po, read-out: Inhibition rate", "protocol": "HgCl2, 1 mg/mL/kg, was administered to male BN rats (8 animals per group) subcutaneously at the back (HgCl2 group). Separately, to male BN rats (8 animals per group) similarly administered with HgCl2, Compounds 1˜4 were administered orally in a daily dose of 30 mg/kg for 6 consecutive days beginning the HgCl2 administration day (Compound 1 administration group, Compound 2 administration group, Compound 3 administration group, and Compound 4 administration group, respectively). Here, Compound 3 is 2-[5-amino-2-(3-methoxyphenyl)-6-oxo-1,6-dihydro-1-pyrimidinyl]-N-[1-[(benzoxazol-2-yl)carbonyl]-2-phenylethyl]acetamide and Compound 4 is 2-[5-amino-2-(3-methoxyphenyl)-6-oxo-1,6-dihydro-1-pyrimidin-yl]-N-[1-[[5-(methoxycarbonyl)benzoxazol-2-yl]carbonyl]-2-phenylethyl]acetamide. On day 7 following HgCl2 administration, the animals were sacrificed with CO2 gas, thoracotomized, and the cardiac blood was collected and centrifuged to recover the serum. The serum samples were stored at −20° C. and the IgE antibody titer was determined by the following procedure.\nAnti-rat IgE monoclonal antibody [MCARE-01] [manufactured by Biochemical Industry Co., 01404] was diluted to 5 μg/mL with 0.02% NaN3/PBS and an ELISA plate was coated with 50 μL of the solution at 4° C. overnight. After each well was washed, blocking was performed with 3% skim milk/TBS at room temperature for at least 1 hour. After another washing, 50 μL of the test sample diluted 200-fold with 1% BSA/TBS was added to each well, followed by 2 hours of incubation at room temperature. Each well was washed and 50 μL of ALP-labeled anti-rat κ & λ-chain monoclonal antibody (Sigma, lot 113H4804) diluted 5000-fold with 1% BSA/TBS was added. The plate was incubated at room temperature for 2 hours. Each well was washed again, and 50 μL/well of p-nitrophenyl phosphate (in 0.1 M diethanolamine, 1 mg/mL, pH 9.8) was added as the substrate solution. After color development, the reaction was stopped with an equal amount of 0.5 M NaOH and the OD was measured at the wavelength of 405 nm. As the standard rat IgE, Chemicon's rat IgE was used."}, "human heart chymase": {"target": "T1, human heart chymase (Homo sapiens, UniProt P23946)", "T1 sequence (P23946 22-247)": "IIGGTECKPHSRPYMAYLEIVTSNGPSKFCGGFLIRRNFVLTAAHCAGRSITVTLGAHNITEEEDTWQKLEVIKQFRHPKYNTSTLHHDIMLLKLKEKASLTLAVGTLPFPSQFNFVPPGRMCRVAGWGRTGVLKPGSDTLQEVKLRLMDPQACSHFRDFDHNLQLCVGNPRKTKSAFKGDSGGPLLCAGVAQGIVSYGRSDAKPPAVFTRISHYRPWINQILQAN", "experiment": "human heart chymase inhibitory activity test (amidase inhibitory activity)", "assay_type": "biochemical", "details": "5 nM chymase; substrate succinyl-alanyl-alanyl-prolyl-phenylalanine-p-nitroanilide; pH 7.5", "description": "The human heart chymase-inhibitory activity of the obtained Compound 1 was assayed in terms of amidase inhibitory activity of human heart chymase and the efficacy of the compound was evaluated as follows.\nThe inhibitory activity was determined from the change in residual activity fraction of 5 nM chymase using a concentration series (<×1,<×10,<×100 equivalents) of Compound 1 in the presence of the synthetic substrate succinyl-alanyl-alanyl-prolyl-phenylalanine-p-nitroanilide at a final concentration of 2.5 mmol. Analysis of inhibitory potency was made by the least square regression of the Easson-Stedman plot utilizing bimolecular equilibrium reaction linearization (Proc. Roy. Soc. B., 121, 141, 1936). The apparent inhibition constant (Kiapp) obtained by this analysis and the inhibition constant (Ki) calculated from the final concentration of the substrate in the reaction mixture and the Km value measured separately were used to evaluate the inhibitory activity. For determination of the initial velocity of the enzymatic reaction, the amount of p-nitroaniline produced by hydrolysis of the substrate was spectrometrically estimated from the increase in the absorbance at 405 nm after subtraction of the absorbance at 650 nm. […]\nFrom the absorbance reading immediately after addition of the enzyme, the increase in absorbance was recorded at exactly equal time-intervals as a progressive curve."}, "male BN rats": {"tested_on": "male BN rats", "experiment": "Arthritis assay in HgCl2-administered BN rats (hindpaw volume, severity score)", "assay_type": "in vivo, rat", "details": "HgCl2 s.c. every other day day 1 to day 10, Compound 1 orally every day", "protocol": "HgCl2, 1 mg/mL/kg, was administered to male BN rats (8 animals per group) subcutaneously at the back every other day from day 1 to day 10, for a total of 5 times (HgCl2 administration group). Separately, in parallel with the administration of HgCl2, Compound 1 was administered orally in a daily dose of […] every day (Compound 1 administration group). In the normal group, PBS in lieu of HgCl2 was administered. On day 1, day 12, day 14, day 16 and day 18, the right and left hindpaw volumes were measured and the severity of arthritis was scored.\nWith regard to right and left hindpaw volumes, the left hindpaw and right hindpaw of each rat were respectively immersed in water and the increase in volume of the water was measured to calculate the rate of increase (%).\n“LEFT” represents the left hindpaw volume and “RIGHT” represents the right hindpaw volume. The ordinate represents the rate of volume increase (%). The abscissa represents the number of days from the first day of testing to the measurement day. […]\nThe arthritis severity was scored for each limb according to the following criteria and the total of scores for the four limbs (maximum score=16) and the average of the scores for 8 animals per group were calculated. […]"}, "anti-ssDNA antibody": {"tested_on": "anti-ssDNA antibody", "experiment": "Assay of anti-ssDNA antibody in serum of HgCl2-administered BN rats", "assay_type": "in vivo, rat", "details": "male BN rats, Compound 1 30 mg/kg orally every day, serum day 12, 14, 16", "protocol": "(§1) HgCl2, 1 mg/mL/kg, was administered to male BN rats (8 animals per group) subcutaneously at the back every other day from day 1 to day 10, for a total of 5 times (HgCl2 administration group). Separately, in parallel with the administration of HgCl2 in the same manner as above, Compound 1 was administered orally in a daily dose of 30 mg/kg every day (Compound 1 administration group). In the normal group, PBS was administered. On day 12, day 14 and day 16, the blood was drawn from the tail vein and centrifuged to separate the serum. (2-1) Assay of anti-ssDNA antibody\nA 96-well plate was coated with 50 μL/well of ε-poly-L-lysine having a molecular weight of 2000˜4000 (Wako Pure Chemical Industries, ECN 6644, 25 μg/mL in PBS) at room temperature for 3 hours. […]\nAfter washing, 50 μL of the test sample diluted 50-fold with 1% BSA/PBS was added to each well, and the plate was incubated at room temperature for 2 hours. […] Amount of bound antibody was measured as the change of absorbance at 490 nm to 650 nm with the combination of peroxidase-labeled anti-rat IgE(Fc) monoclonal antibody and o-phenylendiamine (1mg/mL) and H2O2 (as the control, the OD on day 1 was used). The amount of anti-ssDNA antibody was calculated as the difference (ΔOD) from that of the background.\nThe ordinate represents the difference in absorbance (ΔOD) . […]"}, "[1]": {"tested_on": "anti-type II collagen antibody", "experiment": "Assay of anti-type II collagen antibody in serum of HgCl2-administered BN rats", "assay_type": "in vivo, rat", "details": "male BN rats, Compound 1 30 mg/kg orally every day, serum day 12, 14, 16", "protocol": "as §1\nType II collagen (Collagen Technology Forum, 64-50823) was diluted to 50 μg/mL with 0.02% NaN3/PBS and an ELISA plate was coated with 50 μL/well at 4° C. overnight. After washing, 50 μL of the test sample diluted 50-fold with 1% BSA/PBS was added to the each well and the plate was incubated at room temperature for 2 hours. As the background, wells not supplied with the test sample were provided. Amount of bound antibody was measured as the change of absorbance at 490 nm to 650 nm with the combination of peroxidase-labeled anti-rat IgE(Fc) monoclonal antibody and o-phenylendiamine (1 mg/mL) and H2O2 (as the control, the OD on day 1 was used). The amount of anti-type II collagen antibody was calculated as the difference (ΔOD) from that of the background.\nThe ordinate represents the difference in absorbance (ΔOD). […]"}, "[2]": {"details": "inhibition of serum IgE antibody titer vs HgCl2 group, 30 mg/kg/day orally for 6 days, day 7"}}}
{"smiles": "Nc1cnc(-c2cccc(Cl)c2)n(CC(=O)NC(Cc2ccccc2)C(=O)C(F)(F)C(=O)NCc2ccccc2)c1=O", "note": "(centres unmarked) [Compound 2, 2-[5-amino-2-(3-chlorophenyl)-1 6-dihydro-6-oxo-1-pyrimidinyl]-N-[1-benzyl-3-[N-(benzyl)carbamoyl]-3,3-difluoro-2-oxopropyl]acetamide]", "values": [{"measurement": "Inhibition rate", "setting": "IgE antibody; [2]", "value": 22.3, "unit": "%"}, {"measurement": "Serum IgE antibody titer", "setting": "IgE antibody", "value": "67 ± 7.57", "unit": "µg/mL"}, {"measurement": "inhibition of IgE antibody titer increased by HgCl2 (in words)", "setting": "IgE antibody; 30 mg/kg/day orally for 6 days", "value": "tendency to inhibit"}]}
{"smiles": "COc1cccc(-c2ncc(N)c(=O)n2CC(=O)NC(Cc2ccccc2)C(=O)c2nc3ccccc3o2)c1", "note": "(centres unmarked) [Compound 3, 2-[5-amino-2-(3-methoxyphenyl)-6-oxo-1,6-dihydro-1-pyrimidinyl]-N-[1-[(benzoxazol-2-yl)carbonyl]-2-phenylethyl]acetamide]", "values": [{"measurement": "inhibition at 30 mg/kg/day", "setting": "IgE antibody; [2]", "value": 24.3, "unit": "%"}, {"measurement": "Serum IgE antibody titer", "setting": "IgE antibody", "value": "65.25 ± 6.71*"}, {"measurement": "inhibition of IgE antibody titer increased by HgCl2 (in words)", "setting": "IgE antibody; 30 mg/kg/day orally for 6 days", "value": "significantly inhibited"}]}
{"smiles": "COC(=O)c1ccc2oc(C(=O)C(Cc3ccccc3)NC(=O)Cn3c(-c4cccc(OC)c4)ncc(N)c3=O)nc2c1", "note": "(centres unmarked) [Compound 4, 2-[5-amino-2-(3-methoxyphenyl)-6-oxo-1,6-dihydro-1-pyrimidin-yl]-N-[1-[[5-(methoxycarbonyl)benzoxazol-2-yl]carbonyl]-2-phenylethyl]acetamide]", "values": [{"measurement": "inhibition at 30 mg/kg/day", "setting": "IgE antibody; [2]", "value": 23.4, "unit": "%"}, {"measurement": "Serum IgE antibody titer", "setting": "IgE antibody", "value": "66.10 ± 8.46*"}, {"measurement": "inhibition of IgE antibody titer increased by HgCl2 (in words)", "setting": "IgE antibody; 30 mg/kg/day orally for 6 days", "value": "significantly inhibited"}]}
{"smiles": "COC(=O)c1ccc2oc(C(=O)C(Cc3ccccc3)NC(=O)Cn3c(-c4ccc(F)cc4)ncc(N)c3=O)nc2c1", "note": "(centres unmarked) [Compound 1, 2-[5-amino-2-(4-fluorophenyl)-6-oxo-1,6-dihydro-1-pyrimidinyl]-N-[1-[[5-(methoxycarbonyl)benzoxazol-2-yl]carbonyl]-2-phenylethyl]acetamide]", "values": [{"measurement": "Ki", "setting": "human heart chymase", "value": 23, "unit": "nM"}, {"measurement": "inhibition at 30 mg/kg/day", "setting": "IgE antibody; [2]", "value": 27.8, "unit": "%"}, {"measurement": "Serum IgE antibody titer", "setting": "IgE antibody", "value": "62.24 ± 5.08*"}, {"measurement": "inhibition of IgE antibody titer increased by HgCl2 (in words)", "setting": "IgE antibody; 30 mg/kg/day orally for 6 days", "value": "significantly inhibited"}, {"measurement": "rate of increase in left and right hindpaw volumes (FIG. 1)", "setting": "male BN rats; measured up to day 18", "value": "significantly suppressed"}, {"measurement": "arthritis severity score (FIG. 2)", "setting": "male BN rats; total of four limbs, maximum 16", "value": "significantly reduced"}, {"measurement": "amount of anti-ssDNA antibody (ΔOD, FIG. 3)", "setting": "anti-ssDNA antibody", "value": "significantly reduced"}, {"measurement": "anti-type II collagen antibody titer (ΔOD, FIG. 4)", "setting": "[1]", "value": "reduced"}]}
